The text below walks through data of patent US5051403A (priority 1989, dated 1991).

Where “and” joins values, the source holds several entries; their conditions need not be identical. Equal values may be shown once. Bridge positions count the residues as written; N and C are the ends. Square brackets hold non-standard residues; d marks the D form. Ends that are not written are not given here. Peptide text beside a SMILES is read from it. * marks the point of attachment. Hyp = O=C(O)[C@@H]1C[C@@H](O)CN1; Acm = CC(=O)NC*

The target in this experiment is OCT binding sites, elasmobranch electric organ synaptosomes (Diplobatis ommata, UniProt P56698). The experiment in a line: biochemical. Set-up: species or system Ommata dyscopyge (marine electric ray). The conditions noted are these: pKi.
OCT binding sites, elasmobranch electric organ synaptosomes, sequence (P56698 whole entry, looked up): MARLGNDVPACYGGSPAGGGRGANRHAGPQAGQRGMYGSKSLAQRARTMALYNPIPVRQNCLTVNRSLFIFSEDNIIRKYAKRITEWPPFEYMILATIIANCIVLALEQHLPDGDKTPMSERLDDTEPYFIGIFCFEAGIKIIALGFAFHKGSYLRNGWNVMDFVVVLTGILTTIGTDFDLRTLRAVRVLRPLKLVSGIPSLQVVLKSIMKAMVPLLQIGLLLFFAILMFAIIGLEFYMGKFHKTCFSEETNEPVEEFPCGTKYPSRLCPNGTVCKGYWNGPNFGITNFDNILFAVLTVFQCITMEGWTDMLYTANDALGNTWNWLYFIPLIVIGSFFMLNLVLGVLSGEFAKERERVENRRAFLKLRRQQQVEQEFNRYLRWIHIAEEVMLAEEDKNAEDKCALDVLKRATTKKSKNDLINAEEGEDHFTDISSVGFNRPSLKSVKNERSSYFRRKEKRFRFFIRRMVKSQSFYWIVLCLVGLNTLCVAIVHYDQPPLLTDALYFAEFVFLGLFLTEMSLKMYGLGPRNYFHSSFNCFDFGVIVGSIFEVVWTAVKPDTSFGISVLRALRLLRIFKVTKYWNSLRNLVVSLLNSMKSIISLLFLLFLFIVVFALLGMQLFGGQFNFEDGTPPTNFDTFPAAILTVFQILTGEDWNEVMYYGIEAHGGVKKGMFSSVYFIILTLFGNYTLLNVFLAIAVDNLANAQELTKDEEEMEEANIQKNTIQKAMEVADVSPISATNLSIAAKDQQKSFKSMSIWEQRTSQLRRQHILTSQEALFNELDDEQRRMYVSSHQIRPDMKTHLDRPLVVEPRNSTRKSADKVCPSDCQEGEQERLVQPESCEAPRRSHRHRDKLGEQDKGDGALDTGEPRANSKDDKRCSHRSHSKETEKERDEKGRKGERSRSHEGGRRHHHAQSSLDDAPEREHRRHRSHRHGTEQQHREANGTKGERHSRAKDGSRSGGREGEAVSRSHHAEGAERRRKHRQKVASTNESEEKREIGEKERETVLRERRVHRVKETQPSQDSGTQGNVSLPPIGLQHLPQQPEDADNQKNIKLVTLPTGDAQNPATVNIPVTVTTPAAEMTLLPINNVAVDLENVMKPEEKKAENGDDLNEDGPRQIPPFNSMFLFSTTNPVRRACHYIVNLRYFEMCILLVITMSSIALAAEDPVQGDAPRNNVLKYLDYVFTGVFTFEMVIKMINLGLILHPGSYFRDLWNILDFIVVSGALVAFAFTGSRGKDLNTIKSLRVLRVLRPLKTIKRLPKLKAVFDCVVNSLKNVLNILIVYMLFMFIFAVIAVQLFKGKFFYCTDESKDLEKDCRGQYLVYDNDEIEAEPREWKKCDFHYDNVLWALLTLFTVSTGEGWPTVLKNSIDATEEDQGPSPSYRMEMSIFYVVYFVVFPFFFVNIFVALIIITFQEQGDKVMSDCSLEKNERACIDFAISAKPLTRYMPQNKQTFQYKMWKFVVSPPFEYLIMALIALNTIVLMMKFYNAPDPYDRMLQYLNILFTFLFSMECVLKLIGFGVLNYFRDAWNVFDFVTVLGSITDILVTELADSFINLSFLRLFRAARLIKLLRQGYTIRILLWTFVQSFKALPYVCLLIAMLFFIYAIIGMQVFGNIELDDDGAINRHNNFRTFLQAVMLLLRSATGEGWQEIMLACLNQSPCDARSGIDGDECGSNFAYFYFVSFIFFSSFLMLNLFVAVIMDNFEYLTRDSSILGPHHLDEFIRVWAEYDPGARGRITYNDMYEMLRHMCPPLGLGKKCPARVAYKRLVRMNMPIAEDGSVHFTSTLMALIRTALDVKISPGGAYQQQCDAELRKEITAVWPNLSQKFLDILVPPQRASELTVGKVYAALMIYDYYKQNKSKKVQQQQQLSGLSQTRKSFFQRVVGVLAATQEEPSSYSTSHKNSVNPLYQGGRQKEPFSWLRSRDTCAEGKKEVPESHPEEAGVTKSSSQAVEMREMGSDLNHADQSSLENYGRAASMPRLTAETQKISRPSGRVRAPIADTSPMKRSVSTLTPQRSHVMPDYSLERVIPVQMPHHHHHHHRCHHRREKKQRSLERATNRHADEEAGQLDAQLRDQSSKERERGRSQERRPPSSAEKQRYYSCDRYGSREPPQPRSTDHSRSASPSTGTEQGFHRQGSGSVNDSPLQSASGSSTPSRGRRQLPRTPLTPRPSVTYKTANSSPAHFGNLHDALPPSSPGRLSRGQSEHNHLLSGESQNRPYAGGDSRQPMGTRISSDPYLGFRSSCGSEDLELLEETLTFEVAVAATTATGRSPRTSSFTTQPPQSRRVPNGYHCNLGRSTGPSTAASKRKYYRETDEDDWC
As for `C[C@@H]1NC(=O)[C@H](CO)NC(=O)[C@H](CO)NC(=O)CNC(=O)[C@@H]2C[C@@H](O)CN2C(=O)[C@H](CO)NC(=O)[C@H](CCCCN)NC(=O)[C@@H](N)CSSC[C@@H](C(N)=O)NC(=O)[C@H](C)NC(=O)[C@H](CC(N)=O)NC(=O)[C@H](Cc2ccc(O)cc2)NC(=O)[C@H](CO)NC(=O)[C@H]([C@@H](C)O)NC(=O)[C@@H]2C[C@@H](O)CN2C(=O)[C@H](CO)NC1=O` [GVIA 177] (H-CKS[Hyp]GSSAS[Hyp]TSYNAC-NH2; disulfide 1-16), the Ki (in general, the equilibrium dissociation constant of an inhibitor or competing ligand from its target) was > 1000 µM.

In turn, `C[C@@H]1NC(=O)[C@H](C)NC(=O)[C@H](CO)NC(=O)[C@H](CO)NC(=O)CNC(=O)[C@@H]2C[C@@H](O)CN2C(=O)[C@H](CO)NC(=O)[C@H](CCCCN)NC(=O)[C@@H](N)CSSC[C@@H](C(=O)N[C@@H](Cc2ccc(O)cc2)C(N)=O)NC(=O)[C@H](CCCNC(=N)N)NC(=O)[C@H](CCCCN)NC(=O)[C@H]([C@@H](C)O)NC(=O)[C@H](Cc2ccc(O)cc2)NC(=O)[C@@H]2C[C@@H](O)CN2C(=O)[C@H](CC(N)=O)NC1=O` [GVIA 180] (H-CKS[Hyp]GSSAAN[Hyp]YTKRCY-NH2; disulfide 1-16) gave a Ki of 123 µM.

Compound `CC(=O)NCSC[C@@H]1NC(=O)[C@H](CO)NC(=O)CNC(=O)[C@H]([C@@H](C)O)NC(=O)[C@H](CSCNC(C)=O)NC(=O)[C@@H](N)CSSC[C@@H](C(N)=O)NC(=O)[C@H](CCCCN)NC(=O)CNC(=O)[C@H](CO)NC(=O)[C@H](CCCNC(=N)N)NC1=O` [MVIIA 160] had a Ki of 120 µM.

Consider `CSCC[C@@H]1NC(=O)[C@H](CC(C)C)NC(=O)[C@H](CCCNC(=N)N)NC(=O)[C@H](CO)NC(=O)[C@@H](N)CSSC[C@@H](C(N)=O)NC(=O)[C@H](CO)NC(=O)CNC(=O)[C@H]([C@@H](C)O)NC(=O)[C@H](CSCNC(C)=O)NC(=O)[C@H](CSCNC(C)=O)NC(=O)[C@H](CC(=O)O)NC(=O)[C@H](Cc2ccc(O)cc2)NC1=O` [MVIIA 161] (H-CSRLMYDC(Acm)C(Acm)TGSC-NH2; disulfide 1-13), for which the Ki is > 1000 µM.

Consider `CC(=O)NCSC[C@@H]1NC(=O)[C@H](CCCCN)NC(=O)[C@H](C)NC(=O)CNC(=O)[C@H](CCCCN)NC(=O)CNC(=O)[C@H](CCCCN)NC(=O)[C@@H](N)CSSC[C@@H](C(N)=O)NC(=O)[C@H](CCCCN)NC(=O)CNC(=O)[C@H](CO)NC(=O)[C@H](CCCNC(=N)N)NC(=O)[C@H](CSCNC(C)=O)NC1=O` [MVIIA 162] (H-CKGKGAKC(Acm)C(Acm)RSGKC-NH2; disulfide 1-14), for which the Ki is < 1 µM and 0.17 µM.

As for `CSCC[C@@H]1NC(=O)[C@H](CC(C)C)NC(=O)[C@H](CCCNC(=N)N)NC(=O)[C@H](CO)NC(=O)[C@H](CSCNC(C)=O)NC(=O)[C@H](CCCCN)NC(=O)[C@H](C)NC(=O)CNC(=O)[C@H](CCCCN)NC(=O)CNC(=O)[C@H](CCCCN)NC(=O)[C@@H](N)CSSC[C@@H](C(N)=O)NC(=O)[C@H](CSCNC(C)=O)NC(=O)[C@H](CC(=O)O)NC(=O)[C@H](Cc2ccc(O)cc2)NC1=O` [MVIIA 163], the Ki is 219 µM.

Take `C[C@@H]1NC(=O)CNC(=O)[C@H](CCCCN)NC(=O)CNC(=O)[C@H](CCCCN)NC(=O)[C@@H](N)CSSC[C@@H](C(=O)N[C@@H](CO)C(=O)N[C@@H](CCCNC(=N)N)C(N)=O)NC(=O)[C@H](CCCCN)NC1=O` [MVIIA 170]: the Ki was < 1 µM and 0.282 µM.

The compound `CSCC[C@@H]1NC(=O)[C@H](CC(C)C)NC(=O)[C@H](CCCNC(=N)N)NC(=O)[C@H](CO)NC(=O)[C@H](C)NC(=O)[C@H](CCCCN)NC(=O)[C@H](C)NC(=O)CNC(=O)[C@H](CCCCN)NC(=O)CNC(=O)[C@H](CCCCN)NC(=O)[C@@H](N)CSSC[C@@H](C(N)=O)NC(=O)[C@H](C)NC(=O)[C@H](CC(=O)O)NC(=O)[C@H](Cc2ccc(O)cc2)NC1=O` [MVIIA 171] (H-CKGKGAKASRLMYDAC-NH2; disulfide 1-16) showed a Ki of 4.68 µM. This counts as single-digit micromolar.

Regarding `CSCC[C@@H]1NC(=O)[C@H](CC(C)C)NC(=O)[C@H](CCCNC(=N)N)NC(=O)[C@H](CO)NC(=O)[C@@H]2CSSC[C@H](NC(=O)[C@H](CC(=O)O)NC(=O)[C@H](Cc3ccc(O)cc3)NC1=O)C(=O)N[C@H](C(N)=O)CSSC[C@H](N)C(=O)N[C@@H](CCCCN)C(=O)NCC(=O)N[C@@H](CCCCN)C(=O)NCC(=O)N[C@@H](C)C(=O)N[C@@H](CCCCN)C(=O)N2` [MVIIA 172], the affinity, expressed as Ki, was 20.9 µM.

Take `C[C@@H]1NC(=O)CNC(=O)[C@H](CCCCN)NC(=O)CNC(=O)[C@H](CCCCN)NC(=O)[C@@H](N)CSSC[C@@H](C(N)=O)NC(=O)[C@H](CCCCN)NC(=O)CNC(=O)[C@H](CO)NC(=O)[C@H](CCCNC(=N)N)NC(=O)[C@H](C)NC(=O)[C@H](C)NC(=O)[C@H](CCCCN)NC1=O` [MVIIA 175] (H-CKGKGAKAARSGKC-NH2; disulfide 1-14): the affinity corresponds to a Ki of 3.63 µM. This Ki lies about 5.8-fold lower than the previous one.

Turning to `C[C@@H]1NC(=O)[C@H](C)NC(=O)[C@H](CCCCN)NC(=O)[C@H](CO)NC(=O)CNC(=O)[C@H](CCCCN)NC(=O)[C@H](CO)NC(=O)[C@H](CCCCN)NC(=O)[C@@H](N)CSSC[C@@H](C(N)=O)NC(=O)[C@H](CCCCN)NC(=O)CNC(=O)[C@H](CO)NC(=O)[C@H](CCCNC(=N)N)NC1=O` [MVIIA 176] (H-CKSKGSKAARSGKC-NH2; disulfide 1-14), the affinity, expressed as Ki, was 1.82 µM.

In the case of AKGKGAKASR-NH2 [MVIIA 174], the Ki is < 1 µM and 0.525 µM.
